Literature values in patent US20220152053A1, “METHODS AND COMPOSITIONS FOR TREATING VARIOUS DISORDERS” (Amylyx Pharmaceuticals, Inc., priority 2019, published 2022).
Where two headings read alike, the source gives them in different places.

Assays:
Sprague-Dawley rats = details: oral, 50, 250, and 1000 mg/kg/day, 2 years, males and females
liver enzyme levels = details: in vivo
CD-1 mice = details: oral, 50, 250, and 1000 mg/kg/day, 2 years
cancer subjects = details: intravenous, 250-300 mg/kg/day for 14 days, repeated at 4-week intervals
[1] = tested on: G93A SOD1 mouse model of ALS; details: in vivo
ALS subjects = details: daily dosages between 9 and 21 grams, 20 weeks
[2] = tested on: subjects with urea cycle disorders; details: for Other (rare) adverse events, frequency: gastrointestinal, hematologic, cardiovascular, renal, psychiatric, skin, miscellaneous
CYP 1A2 = target: T1, CYP 1A2 (Homo sapiens, UniProt P05177); details: at 20 times the intended clinical concentration (Cmax)
T1 sequence (P05177 1-516): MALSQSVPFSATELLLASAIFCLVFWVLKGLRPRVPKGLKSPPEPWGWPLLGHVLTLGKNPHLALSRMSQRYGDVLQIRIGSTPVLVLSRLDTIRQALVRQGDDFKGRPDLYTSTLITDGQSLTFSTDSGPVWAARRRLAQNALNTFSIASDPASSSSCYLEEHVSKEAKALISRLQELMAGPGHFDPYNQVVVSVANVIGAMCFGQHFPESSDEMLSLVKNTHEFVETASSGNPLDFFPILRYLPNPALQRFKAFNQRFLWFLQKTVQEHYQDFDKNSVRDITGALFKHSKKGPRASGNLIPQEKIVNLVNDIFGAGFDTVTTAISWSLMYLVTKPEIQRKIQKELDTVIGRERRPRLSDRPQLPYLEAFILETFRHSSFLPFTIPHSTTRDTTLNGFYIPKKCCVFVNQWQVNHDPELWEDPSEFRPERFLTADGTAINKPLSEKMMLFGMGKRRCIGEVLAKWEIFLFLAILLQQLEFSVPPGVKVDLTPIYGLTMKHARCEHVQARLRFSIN

CYP 2D6 = CYP 2D6 (Homo sapiens, UniProt P10635); details: at 20 times the intended clinical concentration (Cmax)
subjects = details: prior human experience
rat = details: intrarectal instillation, 78 weeks

Chain of CYP 2D6 (P10635 whole entry): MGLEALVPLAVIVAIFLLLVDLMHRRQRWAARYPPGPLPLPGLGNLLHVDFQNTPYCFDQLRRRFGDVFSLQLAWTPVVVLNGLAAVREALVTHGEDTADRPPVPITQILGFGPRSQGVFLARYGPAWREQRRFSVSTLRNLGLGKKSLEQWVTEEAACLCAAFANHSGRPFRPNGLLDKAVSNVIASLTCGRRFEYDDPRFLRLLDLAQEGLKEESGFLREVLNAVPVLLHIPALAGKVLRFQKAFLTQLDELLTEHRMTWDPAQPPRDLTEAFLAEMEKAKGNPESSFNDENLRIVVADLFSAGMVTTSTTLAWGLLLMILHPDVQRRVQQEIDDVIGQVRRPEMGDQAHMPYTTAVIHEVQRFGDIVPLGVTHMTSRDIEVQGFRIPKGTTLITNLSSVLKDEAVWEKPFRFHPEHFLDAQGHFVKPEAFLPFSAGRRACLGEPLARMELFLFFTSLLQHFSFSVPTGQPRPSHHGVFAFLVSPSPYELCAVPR

C[C@H](CCC(=O)O)[C@H]1CC[C@H]2[C@@H]3[C@@H](O)C[C@@H]4C[C@H](O)CC[C@]4(C)[C@H]3CC[C@]12C [Ursodeoxycholic acid]
tumorigenicity (Sprague-Dawley rats): statistically significant dose-related increased incidences of pheochromocytomas of adrenal medulla
association with liver damage (liver enzyme levels): has not been associated with liver damage
tumorigenicity (CD-1 mice): not tumorigenic

O=C(O)Cc1ccccc1 [phenylacetate, phenylacetic acid]
Neurotoxicity (cancer subjects): Neurotoxicity was reported

O=C(O)CCCc1ccccc1 [phenylbutyrate, sodium phenylbutyrate]
survival [1]: increase survival
safety and tolerability (ALS subjects): generally safe and tolerable
Decreased appetite ([2]; all subjects): 4%
Other (rare) adverse events, frequency [2]: ≤ 2%
Other (rare) adverse events, frequency ([2]; listed as PB): < 2%
Body odor ([2]; human, in vivo): 3%
bad taste or taste aversion ([2]; human, in vivo): 3%
amenorrhea/menstrual dysfunction (irregular menstrual cycles) ([2]; menstruating subjects): 23%

Phenylacetylacetate
inhibition of CYP 1A2 (CYP 1A2): inhibitory
inhibition of CYP 2D6 (CYP 2D6): inhibitory

C[C@H](CCC(=O)NCCS(=O)(=O)O)[C@H]1CC[C@H]2[C@@H]3[C@@H](O)C[C@@H]4C[C@H](O)CC[C@]4(C)[C@H]3CC[C@]12C [TURSO, taurursodiol]
frequency of adverse reactions (abdominal discomfort, abdominal pain, diarrhea, nausea, pruritus, rash) (subjects): ≥ 1%
frequency of adverse reactions (abdominal discomfort, abdominal pain, diarrhea, nausea, pruritus, rash) (subjects; listed as TUDCA): > 1%

C[C@H](CCC(=O)NCCS(=O)(=O)O)[C@H]1CC[C@H]2[C@@H]3CC[C@@H]4C[C@H](O)CC[C@]4(C)[C@H]3C[C@H](O)[C@]12C [tauro-deoxycholic acid]
effect when co-administered with a carcinogenic agent (rat): tumor-promoting effect
tumor production, bile acid alone (rat): did not produce any tumors
